Results on four molecules are retold here after ChEMBL document CHEMBL1153810, “Sesquiterpene lactones from the root tubers of Lindera aggregata” (J Nat Prod, 2009).

Broadly, the pEC50 is −log10 of the EC50, conventionally taken in molar units.

pEC50: −log10 of the molar value.

The test system of the assay is HepG2. The assay is described as follows: Hepatoprotective activity in human HepG2 cells assessed as inhibition of H2O2- induced oxidative damage after 3 hrs by leucocrstal violet dye treated 1 hr before H2O2 challenge. The format is functional, cell-based.
On to `C=C1CC=C[C@]2(C)C[C@]3(O)OC(=O)C(C)C3=C[C@@H]12` (some centres undefined) [HYDROXYLINDESTENOLIDE], for which the pEC50 was 4.37.
Next, `CC1=CC[C@@H](O)[C@]2(C)CC3(O)OC(=O)C(C)=C3[C@H](O)[C@@H]12` (some centres undefined) [LINDERAGALACTONE E]: 4.17.
Regarding `C/C1=C\CCC2=C[C@@H](OC2=O)c2c(C)coc2C1` [LINDERALACTONE], the negative-log EC50 (pEC50) was 4.01.
Regarding `C/C1=C\CC[C@]23O[C@H]2[C@@H](OC3=O)c2c(C)coc2C1` [LINDERANE], the pEC50 was 3.78.
